Laboratory results: paper PMC2583053, “snoRNA, a Novel Precursor of microRNA in Giardia lamblia” (PLoS Pathogens, 2008)

Key:
[1] = biological target: T1, GlAgo (Giardia Argonaute) (Giardia duodenalis, UniProt A8BCK6); assay: m7GpppG-Sepharose affinity retention, elution with free m7GpppG, anti-His Western blot; assay type: binding; details: 20 mM HEPES pH 7.4, 150 mM KCl, 1 mM EDTA, 2 mM DTT; washed with 0.1 mM GTP, eluted with 0.1 mM m7GpppG
T1 construct: gene Ago; full-length ORF from Giardia genomic DNA in pET28b, His-tagged (C-terminal His6 encoded by reverse primer), expressed in E. coli BL21(DE3) with chaperones, Ni-NTA purified; strain WB is printed for the trophozoites used, not for the cloning DNA
T1 sequence (A8BCK6 1-900): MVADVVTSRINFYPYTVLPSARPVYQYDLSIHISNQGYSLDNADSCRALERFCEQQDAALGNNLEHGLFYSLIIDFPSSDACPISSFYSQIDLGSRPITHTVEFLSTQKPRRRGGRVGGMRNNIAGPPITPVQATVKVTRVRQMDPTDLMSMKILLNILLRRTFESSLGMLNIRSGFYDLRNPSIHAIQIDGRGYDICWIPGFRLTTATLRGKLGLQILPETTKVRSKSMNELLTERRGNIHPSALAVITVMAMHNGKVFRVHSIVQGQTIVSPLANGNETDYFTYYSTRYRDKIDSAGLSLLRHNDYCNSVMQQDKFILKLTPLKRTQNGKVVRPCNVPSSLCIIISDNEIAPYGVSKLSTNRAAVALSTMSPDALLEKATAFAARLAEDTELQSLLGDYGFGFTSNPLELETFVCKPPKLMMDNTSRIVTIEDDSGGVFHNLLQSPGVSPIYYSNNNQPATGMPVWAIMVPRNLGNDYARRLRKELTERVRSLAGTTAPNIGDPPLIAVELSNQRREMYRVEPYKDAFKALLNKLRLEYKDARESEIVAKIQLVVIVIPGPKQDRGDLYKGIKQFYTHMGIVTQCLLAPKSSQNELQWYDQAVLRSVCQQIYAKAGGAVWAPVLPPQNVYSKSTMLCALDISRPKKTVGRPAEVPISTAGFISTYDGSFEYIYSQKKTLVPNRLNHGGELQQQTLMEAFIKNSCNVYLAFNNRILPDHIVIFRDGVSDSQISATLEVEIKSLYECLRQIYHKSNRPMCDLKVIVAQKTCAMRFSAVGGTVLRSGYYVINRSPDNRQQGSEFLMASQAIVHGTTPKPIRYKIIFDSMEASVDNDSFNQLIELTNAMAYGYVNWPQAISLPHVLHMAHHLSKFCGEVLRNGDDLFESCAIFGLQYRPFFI

[2] = biological target: T2, GlAgo (Giardia Argonaute) (Giardia lamblia, UniProt A8BCK6 1-900); assay: EMSA; 10 ng miR2; competed by unlabeled miR2 and by yeast RNA (no sequence specificity); EMSA: native 6% polyacrylamide gel, 10 ng radiolabeled miR2; binding buffer, pH and temperature not given in the material; details: protein: recombinant; tags: C-terminal 6xHis (encoded in reverse primer S6); single strand
T2 sequence: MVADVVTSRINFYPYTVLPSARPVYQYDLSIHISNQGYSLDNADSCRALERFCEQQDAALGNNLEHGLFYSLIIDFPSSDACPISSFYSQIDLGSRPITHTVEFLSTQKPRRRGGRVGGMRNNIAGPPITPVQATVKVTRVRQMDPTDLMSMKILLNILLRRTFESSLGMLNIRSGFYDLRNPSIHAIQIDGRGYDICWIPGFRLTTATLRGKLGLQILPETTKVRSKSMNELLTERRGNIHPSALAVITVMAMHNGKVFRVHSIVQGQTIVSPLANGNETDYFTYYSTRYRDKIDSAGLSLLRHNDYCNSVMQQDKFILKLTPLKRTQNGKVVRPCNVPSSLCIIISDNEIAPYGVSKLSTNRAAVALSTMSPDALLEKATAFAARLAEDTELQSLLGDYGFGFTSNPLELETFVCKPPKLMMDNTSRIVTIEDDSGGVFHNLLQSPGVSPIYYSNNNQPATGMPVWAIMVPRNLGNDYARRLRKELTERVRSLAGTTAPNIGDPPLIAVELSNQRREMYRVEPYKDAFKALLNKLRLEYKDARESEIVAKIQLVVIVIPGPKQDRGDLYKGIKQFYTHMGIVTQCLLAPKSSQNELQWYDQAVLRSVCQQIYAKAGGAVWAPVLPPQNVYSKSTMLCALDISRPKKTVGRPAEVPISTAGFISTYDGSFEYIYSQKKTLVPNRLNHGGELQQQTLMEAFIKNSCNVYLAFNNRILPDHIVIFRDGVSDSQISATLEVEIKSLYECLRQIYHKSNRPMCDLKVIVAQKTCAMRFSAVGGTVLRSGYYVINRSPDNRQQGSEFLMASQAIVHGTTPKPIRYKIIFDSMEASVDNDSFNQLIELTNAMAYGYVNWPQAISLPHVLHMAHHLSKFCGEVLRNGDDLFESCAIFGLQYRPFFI

Molecule	m7GpppG-Sepharose affinity retention, elution with free m7GpppG, anti-His Wester [1]	binding result [2]
C[n+]1cn([C@@H]2O[C@H](COP(=O)(O)OP(=O)(O)OP(=O)(O)OC[C@H]3O[C@@H](n4cnc5c(=O)[nH]c(N)nc54)[C@H](O)[C@@H]3O)[C@@H](O)[C@H]2O)c2nc(N)[nH]c(=O)c21 [m^7GpppG]	the protein was specifically eluted off the Sepharose beads with m^7GpppG	–
CAGCCUAAUCACCGCCCCUAUAGUCC (ssRNA) [miR2]	–	binds
